Source: patent US4863951A, “Pharmacologically active amino-5,6,7,8-tetrahydronaphtho [2,3-B] furan compounds” (ADIR Et Cie, priority 1987, dated 1989)
Structures can show the parent of a compound that is named as a salt.

Key:
[1] = system: reserpine-induced hypothermia; experiment: Antagonism of reserpine-induced hypothermia; format: in vivo, Swiss CD male mice; settings: mice, reserpine 2.5 mg.kg^-1 i.p.
Procedure: (§1) The antidepressant effects of the compounds of the invention were investigated by assessing the antagonism of reserpine-induced hypothermia and the antagonism of the ponto-geniculo-occipital waves induced by the compound Ro4-1284 in cats.
The study is carried out on Swiss CD male mice (27-28 g). After distribution into groups of 10 animals each, reserpine is injected intraperitoneally at a dose of 2.5 mg.kg^-1. Three hours later, the compounds undergoing trial are administered intraperitoneally. The rectal temperature of the animals is measured one hour and two hours after the second treatment, and compared with the initial temperature To of these same animals, measured immediately before the administration of the compounds undergoing trial.

[2] = system: apomorphine-induced hypothermia; experiment: Antagonism with respect to apomorphine-induced hypothermia in mice; format: in vivo; settings: apomorphine 1 mg.kg^-1 s.c., after 2 hours; for change in vivo at 2.5 mg/kg / change in vivo at 5 mg/kg / change in vivo at 10 mg/kg / change in vivo at 20 mg/kg: Mus musculus, ip, 2 h; for change in vivo at 2.5 mg/kg: read-out: % antagonism of hypothermia, mice, i.p. dose 2.5; for change in vivo at 5 mg/kg: read-out: % antagonism of hypothermia, mice, i.p. dose 5; for change in vivo at 10 mg/kg: read-out: % antagonism of hypothermia, mice, i.p. dose 10; for change in vivo at 20 mg/kg: read-out: % antagonism of hypothermia, mice, i.p. dose 20; for % antagonism of hypothermia: mice, hydrochloride
Procedure: Testing for an antagonism with respect to apomorphine-induced hypothermia in mice was performed according to the method described by CHERMAT R. and PONCELET M. in J. Pharmac. (1983), 14, No. 1, p. 93-97. The dose of apomorphine administered subcutaneously was 1 mg.kg^-1. Tables VII and VIII show the percentage antagonism of the hypothermia observed after 2 hours.

[3] = system: ponto-geniculo-occipital (P.G.O.) waves induced by Ro4-1284; experiment: Antagonism of the ponto-geniculo-occipital (P.G.O.) waves induced by Ro4-1284; format: in vivo; settings: Felis catus, iv, cats, i.v., read-out: ED50 (effective dose inhibiting by 50% the number of P.G.O. waves)
Procedure: as §1
This study was performed according to the method of Ruch-Monachon M. A., Jalfre M. and Haefely W. described in Arch. Int. Pharm. Therap., (1976), 219, No. 2, p. 251-346, and it enabled the effective dose (i.v) inhibiting by 50% (ED50) the number of P.G.O waves to be assessed.

[4] = system: apomorphine-induced rearing-up; experiment: Antagonism of apomorphine-induced rearing-up behavior in mice; format: in vivo; settings: apomorphine 0.75 mg.kg^-1 s.c.; for change in vivo at 2.5 mg/kg: read-out: % inhibition of rearing-up, mice, i.p. dose 2.5 mg.kg^-1; for change in vivo at 5 mg/kg: read-out: % inhibition of rearing-up, mice, i.p. dose 5 mg.kg^-1; for % inhibition of rearing-up: mice, hydrochloride
Procedure: Studied in the test of antagonism of apomorphine-induced rearing-up following the subcutaneous administration of a dose of 0.75 mg.kg^-1 of this substance in mice, the compounds of general formula I act in a clear-cut manner at doses greater than or equal to 2.5 mg.kg^-1 (i.p.). The same results are observed when the compounds of general formula I are administered orally at a dose of 20 mg.kg^-1. The activity of the compounds was assessed according to the method described by Protais P, Costentin J and Schwartz J. C. in Psychopharmacology (1976), 50, p. 1-6.
(s=significant difference, p<0.05).

[5] = system: isolation-induced aggression; experiment: Antiaggressive effects: isolation-induced aggression in mice; format: in vivo; settings: isolated mice, i.p.
Text: (§2) The antiaggressive effects of the compounds of the invention were investigated by two methods, one of them testing for an inhibition of aggressive behavior in peviously isolated mice (Yen C. Y., Stanger A. L., and Millman N, Arch. Int. Pharmacodyn. Therap. (1959), 123, p. 179-185), and the other in isolated and bulbectomized rats (Garattini S. and Sigg E. B. "Aggressive Behaviour" p. 47-55 Ed. Excerpta Medica Found., Amsterdam, 1969).
(§3) (Tables IX and X, s=significant, p<0.05).

[6] = system: aggression of isolated, bulbectomized rats; experiment: Antiaggressive effects: aggression of isolated, bulbectomized rats; format: in vivo; settings: i.p.
Text: as §2, §3

[7] = system: interoceptive stimulus of apomorphine; experiment: Drug discrimination in rats (generalization with apomorphine); format: in vivo; settings: 2.5 mg.kg^-1 i.p., 30 minutes before test, hydrochloride
Procedure: Rats were trained to discriminate between the effect of the interoceptive stimulus of apomorphine (0.2 mg.kg^-1 i.p.) and that of physiological saline, according to a principle described by Colpaert F. in "Drug discrimination application in C.N.S. Pharmacology" Ed. Elsevier Biomedical 1982, Amsterdam. […]
Under the experimental conditions employed, the behavior shown by the animals coincides with that noted in the case of administration of apomorphine.

[8] = system: apomorphine-induced stereotypy; experiment: Antagonism of apomorphine-induced stereotypy in rats; format: in vivo; settings: apomorphine 1.5 mg.kg^-1 i.p., 30 minutes; for % ISS (inhibition (-) or potentiation (+) of the stereotypy score): rats, hydrochloride
Procedure: The inhibitory activity of the compounds of the invention with respect to apomorphine- or amphetamine-induced stereotypy in rats was assessed using the scale of scoring of stereotyped movements described by Quinton R. M. and Halliwell G. in Nature (1963), 200, p. 178-179.
Apomorphine or amphetamine was administered to the animals intraperitoneally at a dose of 1.5 mg.kg^-1. The percentage inhibition (-) or potentiation (+) of the stereotypy score (% ISS) shown in Tables IV and V for apomorphine corresponds to a measurement time of 30 minutes. In contrast, the percentage inhibition of the stereotypy score shown in Table VI for amphetamine corresponds to a measurement time of 3 hours. […]

[9] = 2.5 mg.kg^-1 i.p., hydrochloride
[10] = 10 mg.kg^-1 i.p., hydrochloride
[11] = 20 mg.kg^-1 i.p., hydrochloride

Row | SMILES | % inhibition of hypothermia ([1]; 20 mg.kg^-1 i.p.) | change in vivo at 2.5 mg/kg [2] [%] | change in vivo at 5 mg/kg [2] [%] | change in vivo at 10 mg/kg [2] [%] | change in vivo at 20 mg/kg [2] [%] | change in vivo at 2.5 mg/kg ([4]; Mus musculus, ip) [%] | change in vivo at 5 mg/kg ([4]; Mus musculus, ip) [%] | % of pairs of mice showing no sign of fighting ([5]; 2.5 mg.kg^-1) [%] | % of rats rendered non-aggressive ([6]; 2.5 mg.kg^-1) [%] | % of pairs of mice showing no sign of fighting ([5]; 5 mg.kg^-1, hydrochloride) [%] | % inhibition of hypothermia [1, 9] | % inhibition of hypothermia ([1]; 5 mg.kg^-1 i.p., hydrochloride) | % inhibition of hypothermia [1, 10] | % of rats rendered non-aggressive ([6]; 5 mg.kg^-1, hydrochloride) [%] | % inhibition of hypothermia [1, 11] | % ISS (inhibition (-) or potentiation (+) of the stereotypy score) ([8]; i.p. dose 10 mg.kg^-1) | % ISS (inhibition (-) or potentiation (+) of the stereotypy score) ([8]; i.p. dose 20 mg.kg^-1) | % of pairs of mice showing no sign of fighting ([5]; 10 mg.kg^-1, hydrochloride) [%] | % of rats rendered non-aggressive ([6]; 10 mg.kg^-1, hydrochloride) [%] | other results
1 | CNC1CCc2cc3c(cc2C1)OCC3 (racemic) [Example 9, dl-7-(N-Methylamino)-2,3,5,6,7,8-hexahydronaphtho[2,3-b]furan hydrochloride] | +11% | -39 | -67 | -86 | -84 | -46 | -65 | 67 | 27 |  |  |  |  |  |  |  |  |  |  | % inhibition of hypothermia ([1]; 2.5 mg.kg^-1 i.p.): -8%; % inhibition of hypothermia ([1]; 5 mg.kg^-1 i.p.): +37%; % inhibition of hypothermia ([1]; 10 mg.kg^-1 i.p.): +16%; ED50 [3]: 0.173 mg/kg; change in vivo at 10 mg/kg ([4]; Mus musculus, ip, read-out: % inhibition of rearing-up, mice, i.p. dose 10 mg.kg^-1): -100%; change in vivo at 20 mg/kg ([4]; Mus musculus, ip, read-out: % inhibition of rearing-up, mice, i.p. dose 20 mg.kg^-1): -100%; % of pairs of mice showing no sign of fighting ([5]; 5 mg.kg^-1): 56%; % of pairs of mice showing no sign of fighting ([5]; 10 mg.kg^-1): 89%; % of rats rendered non-aggressive ([6]; 5 mg.kg^-1): 58%
2 | NC1CCc2cc3c(cc2C1)OCC3 (stereo not drawn) [Example 4, l-7-Amino-2,3,5,6,7,8-hexahydronaphtho[2,3-b]furan hydrochloride] |  |  |  |  |  |  |  |  |  | 44 |  |  |  |  |  |  |  |  |  | % antagonism of hypothermia ([2]; i.p. dose 2.5): -8%; % antagonism of hypothermia ([2]; i.p. dose 5): -3%; % antagonism of hypothermia ([2]; i.p. dose 10): -11%; % antagonism of hypothermia ([2]; i.p. dose 20): -19%; % inhibition of rearing-up ([4]; i.p. dose 10 mg.kg^-1): -24%; % inhibition of rearing-up ([4]; i.p. dose 20 mg.kg^-1): -86%; % of pairs of mice showing no sign of fighting ([5]; 2.5 mg.kg^-1, hydrochloride): 22%; % of animals which generalize [7]: 70%; Number of animals showing the effect of generalization with apomorphine [7]: 7/10; % of rats rendered non-aggressive ([6]; 2.5 mg.kg^-1, hydrochloride): 12%
3 | CNC1CCc2cc3c(cc2C1)OCC3 (stereo not drawn) [Example 38, d-7-(N-Methylamino)-2,3,5,6,7,8-hexahydronaphtho[2,3-b]furan hydrochloride] |  | -48 | -91 | -112 | -119 | -76 | -100 |  | 37 | 70 | -28% | -35% | -21% | 75 |  |  |  |  |  | change in vivo at 5 mg/kg ([8]; Rattus norvegicus, ip, 0.5 h, read-out: % ISS (inhibition (-) or potentiation (+) of the stereotypy score), rats, i.p. dose 5 mg.kg^-1): -60%; change in vivo at 10 mg/kg ([8]; Rattus norvegicus, ip, 0.5 h, read-out: % ISS (inhibition (-) or potentiation (+) of the stereotypy score), rats, i.p. dose 10 mg.kg^-1): -54%
4 | CNC1CCc2cc3c(cc2C1)OCC3 (stereo not drawn) [Example 39, l-7-(N-Methylamino)-2,3,5,6,7,8-hexahydronaphtho[2,3-b]furan hydrochloride] | +15% |  |  |  |  |  |  | 70 |  | 90 | +37% | +14% | +6% | 58 |  |  |  |  |  | 
5 | CN(C)C1CCc2cc3c(cc2C1)OCC3 (stereo not drawn) [Example 40, d-7-(N,N-Dimethylamino)-2,3,5,6,7,8-hexahydronaphtho[2,3,-b]furan hydrochloride] |  |  |  | -44 | -73 | -75 | -100 |  |  | 22 |  |  | +14% |  | +14% | -61% | -67% | 50 | 42 | 
6 | CN(C)C1CCc2cc3c(cc2C1)OCC3 (stereo not drawn) [Example 41, l-7-(N,N-Dimethylamino)-2,3,5,6,7,8-hexahydronaphtho[2,3-b]furan hydrochloride] |  |  |  |  |  |  |  |  |  | 66 |  |  | +13% |  | +29% | +11% | +3% | 90 | 50 | 
